Experimental data taken from the supplement of paper PMC10307832.

Legend:
Assay in all cases: relative viability (nuclei count vs DMSO), 5 days (fraction); higher = more cells survive
NCI-H1703 = test system: NCI-H1703
How it was run: (§1)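 Medians of duplicate plates are given as relative viability. That measure is the nuclei count in treated wells divided by the count in vehicle wells. Counts were taken on 4× images of lung cancer cell lines in 1536-well plates, 5 days after pin-tool dosing the day after seeding with one drug alone or a fixed anchor-drug dose plus five library-drug doses (not always all listed) in √10 steps.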

IA-LM = test system: IA-LM
How it was run: as §1

NCI-H1299 = test system: NCI-H1299
How it was run: as §1

Calu-6 = test system: Calu-6
How it was run: as §1

A549 = test system: A549
How it was run: as §1

EBC-1 = test system: EBC-1
How it was run: as §1

NCI-H1437 = test system: NCI-H1437
How it was run: as §1

| SMILES | relative viability (NCI-H1703; first compound 0.04 µM) | relative viability (NCI-H1703; first compound 0.1265 µM) | relative viability (NCI-H1703; first compound 0.4 µM) | relative viability (NCI-H1703; first compound 4 µM) | relative viability (IA-LM; first compound 0.04 µM) | relative viability (IA-LM; first compound 0.1265 µM) | relative viability (IA-LM; first compound 0.4 µM) | relative viability (IA-LM; first compound 4 µM) | relative viability (NCI-H1299; first compound 0.04 µM) | relative viability (NCI-H1299; first compound 0.1265 µM) | relative viability (NCI-H1299; first compound 0.4 µM) | relative viability (NCI-H1299; first compound 4 µM) | relative viability (Calu-6; first compound 0.04 µM) | relative viability (Calu-6; first compound 0.1265 µM) | relative viability (Calu-6; first compound 0.4 µM) | relative viability (Calu-6; first compound 4 µM) | relative viability (A549; first compound 0.04 µM) | relative viability (A549; first compound 0.1265 µM) | relative viability (A549; first compound 0.4 µM) | relative viability (A549; first compound 4 µM) | relative viability (EBC-1; first compound 0.04 µM) | relative viability (EBC-1; first compound 0.1265 µM) | relative viability (EBC-1; first compound 0.4 µM) | relative viability (EBC-1; first compound 4 µM) | relative viability (NCI-H1437; first compound 0.04 µM) | relative viability (NCI-H1437; first compound 0.1265 µM) | relative viability (NCI-H1437; first compound 0.4 µM) | relative viability (NCI-H1437; first compound 4 µM) |
| --- | --- | --- | --- | --- | --- | --- | --- | --- | --- | --- | --- | --- | --- | --- | --- | --- | --- | --- | --- | --- | --- | --- | --- | --- | --- | --- | --- | --- |
| C[C@@H]1CN(CC(=O)Nc2ccc3c(c2)Cc2cccc(-c4cc(=O)cc(N5CCOCC5)o4)c2S3)C[C@H](C)O1 + CC1(C)CCC(c2ccc(Cl)cc2)=C(CN2CCN(c3ccc(C(=O)NS(=O)(=O)c4ccc(N[C@H](CCN5CCOCC5)CSc5ccccc5)c(S(=O)(=O)C(F)(F)F)c4)cc3)CC2)C1 [Navitoclax] (partner 0.5 µM) | 1.42 | 1.45 | 0.911 | 0.808 | 0.759 | 0.787 | 0.669 | 0.317 | 1.03 | 1.04 | 1.01 | 0.941 | 0.871 | 0.831 | 0.889 | 0.54 | 1.3 | 1.2 | 1.23 | 0.912 | 0.405 | 0.432 | 0.287 | 0.216 | 1.14 | 1.1 | 1.13 | 0.882 |
| C[C@@H]1CN(CC(=O)Nc2ccc3c(c2)Cc2cccc(-c4cc(=O)cc(N5CCOCC5)o4)c2S3)C[C@H](C)O1 + CC(C)C[C@H](NC(=O)[C@H](Cc1ccccc1)NC(=O)c1cnccn1)B(O)O [Bortezomib] (partner 0.002 µM) | 0.469 | 0.365 | 0.241 | 0.254 | 0.669 | 0.773 | 0.832 | 0.375 | 1.03 | 1.03 | 1.01 | 0.926 | 1.07 | 1.03 | 1.08 | 0.66 | – | – | – | – | 0.636 | 0.535 | 0.472 | 0.335 | 0.486 | 0.529 | 0.489 | 0.45 |
| C[C@@H]1CN(CC(=O)Nc2ccc3c(c2)Cc2cccc(-c4cc(=O)cc(N5CCOCC5)o4)c2S3)C[C@H](C)O1 + CS(=O)(=O)CCNCc1ccc(-c2ccc3ncnc(Nc4ccc(OCc5cccc(F)c5)c(Cl)c4)c3c2)o1 [Lapatinib] (partner 2 µM) | 1.24 | 1.1 | 0.955 | 0.688 | 0.951 | 0.777 | 0.956 | 0.339 | 1.01 | 0.956 | 1.01 | 0.816 | 1.09 | 1.06 | 0.96 | 0.775 | 0.986 | 0.917 | 1.14 | 0.831 | 0.255 | 0.219 | 0.214 | 0.208 | 0.758 | 0.703 | 0.834 | 0.702 |
| C[C@@H]1CN(CC(=O)Nc2ccc3c(c2)Cc2cccc(-c4cc(=O)cc(N5CCOCC5)o4)c2S3)C[C@H](C)O1 + CS(=O)(=O)N1CCN(Cc2cc3nc(-c4cccc5[nH]ncc45)nc(N4CCOCC4)c3s2)CC1 [Pictilisib] (partner 1 µM) | 0.249 | 0.243 | 0.238 | 0.205 | 0.3 | 0.372 | 0.301 | 0.234 | 0.898 | 0.739 | 0.848 | 0.689 | 0.962 | 0.97 | 0.925 | 0.8 | 0.524 | 0.594 | 0.444 | 0.323 | 0.487 | 0.412 | 0.244 | 0.266 | 0.416 | 0.45 | 0.339 | 0.477 |
| C[C@@H]1CN(CC(=O)Nc2ccc3c(c2)Cc2cccc(-c4cc(=O)cc(N5CCOCC5)o4)c2S3)C[C@H](C)O1 + C[C@@H](Oc1cc(-c2cnn(C3CCNCC3)c2)cnc1N)c1c(Cl)ccc(F)c1Cl [Crizotinib] (partner 1 µM) | 0.607 | 0.678 | 0.595 | 0.513 | 1.02 | 0.671 | 0.657 | 0.36 | 0.915 | 0.92 | 0.844 | 0.837 | 0.829 | 0.719 | 0.597 | 0.528 | 0.909 | 0.772 | 0.874 | 0.522 | 0.202 | 0.203 | 0.201 | 0.2 | 0.986 | 0.899 | 0.924 | 0.778 |
| C[C@@H]1CN(CC(=O)Nc2ccc3c(c2)Cc2cccc(-c4cc(=O)cc(N5CCOCC5)o4)c2S3)C[C@H](C)O1 + C[C@]1(O)C[C@@H](c2nc(-c3ccc4ccc(-c5ccccc5)nc4c3)c3c(N)nccn32)C1 [Linsitinib] (partner 1 µM) | 0.853 | 1.24 | 0.549 | 0.492 | 0.713 | 0.549 | 0.528 | 0.283 | 1.01 | 0.978 | 0.964 | 0.822 | 0.858 | 0.911 | 0.938 | 0.673 | 0.471 | 0.709 | 0.58 | 0.488 | 1.01 | 0.867 | 0.84 | 0.599 | 1.01 | 0.989 | 0.939 | 0.575 |
| C[C@@H]1CN(CC(=O)Nc2ccc3c(c2)Cc2cccc(-c4cc(=O)cc(N5CCOCC5)o4)c2S3)C[C@H](C)O1 + Cc1nc(NC(=O)N2CCC[C@H]2C(N)=O)sc1-c1ccnc(C(C)(C)C(F)(F)F)c1 [Alpelisib] (partner 2 µM) | 0.426 | 0.33 | 0.299 | 0.277 | 0.884 | 0.801 | 0.895 | 0.387 | 1.02 | 1.05 | 1.05 | 1.02 | 1.03 | 1.03 | 0.97 | 0.79 | 0.776 | 0.753 | 0.826 | 0.457 | 0.905 | 0.826 | 0.386 | 0.506 | 1.04 | 1.01 | 0.813 | 0.797 |
